From ChEMBL document CHEMBL4145540 (Eur J Med Chem, 2018)
Active and inactive are the calls of the source. The calls are words filed in the database; no cut-off is given here.

Tests used:
[1] = test system: HT-29; test: Antiproliferative activity against human HT-29 cells after 2 days by MTT assay; format: functional, cell-based; details: HT-29, 48 h
[2] = test system: MDA-MB-231; test: Inhibition of EBI binding to beta-tubulin colchicine binding site in human MDA-MB-231 cells at 100 uM preincubated for 16 hrs followed by EBI addition and measured after 1.5 hrs by Western blot analysis; format: cell-based
[3] = test system: A549; test: Cell cycle arrest in human A549 cells assessed as accumulation at G2/M phase at 1500 nM after 20 hrs by propidium iodide staining based flow cytometry (reference value: 11 +/- 1%); format: functional
[4] = test system: A549; test: Cell cycle arrest in human A549 cells assessed as accumulation at sub-G0 phase at 1500 nM after 20 hrs by propidium iodide staining based flow cytometry (reference value: 6.6 +/- 0.1%); format: functional
[5] = test system: HEK293; test: Antiproliferative activity against HEK293 cells after 2 days by MTT assay; format: cell-based; details: Homo sapiens, HEK293, 48 h
[6] = test system: HL-60; test: Antiproliferative activity against human HL60 cells after 2 days by MTT assay; format: functional, cell-based; details: HL-60, 48 h
[7] = test system: A549; test: Cell cycle arrest in human A549 cells assessed as accumulation at G0/G1 phase at 1500 nM after 20 hrs by propidium iodide staining based flow cytometry (reference value: 66 +/- 1%); format: functional
[8] = test system: MCF7; test: Antiproliferative activity against human MCF7 cells after 2 days by MTT assay; format: functional, cell-based; details: MCF7, 48 h
[9] = test system: A549; test: Antiproliferative activity against human A549 cells after 2 days by MTT assay; format: functional, cell-based; details: A549, 48 h
[10] = test system: A549; test: Cell cycle arrest in human A549 cells assessed as accumulation at S phase at 1500 nM after 20 hrs by propidium iodide staining based flow cytometry (reference value: 16 +/- 1%); format: functional
[11] = test system: HMEC-1; test: Vascular disruptive activity in HMEC1 cells assessed as disruption of preformed tubular networks after 4 hrs by matrigel based assay; format: functional, cell-based; details: Homo sapiens
[12] = test system: HMEC-1; test: Antiproliferative activity against HMEC1 cells after 2 days by MTT assay; format: functional, cell-based; details: Homo sapiens, HMEC-1, 48 h
[13] = test system: HeLa; test: Antiproliferative activity against human HeLa cells after 2 days by MTT assay; format: functional, cell-based; details: 48 h
[14] = test system: MDA-MB-231; test: Antiproliferative activity against human MDA-MB-231 cells after 3 days by coulter counting method; format: functional, cell-based; details: MDA-MB-231, 72 h
[15] = test system: A549; test: Cell cycle arrest in human A549 cells assessed as accumulation at S phase at 750 nM after 20 hrs by propidium iodide staining based flow cytometry (reference value: 16 +/- 1%); format: functional
[16] = test system: A549; test: Cell cycle arrest in human A549 cells assessed as accumulation at G2/M phase at 750 nM after 20 hrs by propidium iodide staining based flow cytometry (reference value: 11 +/- 1%); format: functional
[17] = test system: A549; test: Cell cycle arrest in human A549 cells assessed as accumulation at sub-G0 phase at 750 nM after 20 hrs by propidium iodide staining based flow cytometry (reference value: 6.6 +/- 0.1%); format: functional
[18] = test system: A549; test: Cell cycle arrest in human A549 cells assessed as accumulation at G0/G1 phase at 750 nM after 20 hrs by propidium iodide staining based flow cytometry (reference value: 66 +/- 1%); format: functional
[19] = test system: A549; test: Cell cycle arrest in human A549 cells assessed as accumulation at sub-G0 phase at 230 nM after 20 hrs by propidium iodide staining based flow cytometry (reference value: 6.6 +/- 0.1%); format: functional
[20] = test system: A549; test: Cell cycle arrest in human A549 cells assessed as accumulation at G0/G1 phase at 230 nM after 20 hrs by propidium iodide staining based flow cytometry (reference value: 66 +/- 1%); format: functional
[21] = test system: A549; test: Cell cycle arrest in human A549 cells assessed as accumulation at S phase at 230 nM after 20 hrs by propidium iodide staining based flow cytometry (reference value: 16 +/- 1%); format: functional
[22] = test system: A549; test: Cell cycle arrest in human A549 cells assessed as accumulation at G2/M phase at 230 nM after 20 hrs by propidium iodide staining based flow cytometry (reference value: 11 +/- 1%); format: functional
[23] = test system: A549; test: Cell cycle arrest in human A549 cells assessed as accumulation at S phase at 450 nM after 20 hrs by propidium iodide staining based flow cytometry (reference value: 16 +/- 1%); format: functional
[24] = test system: A549; test: Cell cycle arrest in human A549 cells assessed as accumulation at G0/G1 phase at 450 nM after 20 hrs by propidium iodide staining based flow cytometry (reference value: 66 +/- 1%); format: functional
[25] = test system: A549; test: Cell cycle arrest in human A549 cells assessed as accumulation at sub-G0 phase at 450 nM after 20 hrs by propidium iodide staining based flow cytometry (reference value: 6.6 +/- 0.1%); format: functional
[26] = test system: A549; test: Cell cycle arrest in human A549 cells assessed as accumulation at G2/M phase at 450 nM after 20 hrs by propidium iodide staining based flow cytometry (reference value: 11 +/- 1%); format: functional
[27] = test system: A549; test: Cell cycle arrest in human A549 cells assessed as accumulation at G2/M phase at 135 nM after 20 hrs by propidium iodide staining based flow cytometry (reference value: 11 +/- 1%); format: functional
[28] = test system: A549; test: Cell cycle arrest in human A549 cells assessed as accumulation at sub-G0 phase at 135 nM after 20 hrs by propidium iodide staining based flow cytometry (reference value: 6.6 +/- 0.1%); format: functional
[29] = Selectivity index, ratio of IC50 for antiproliferative activity against HEK293 cells to IC50 for antiproliferative activity against human MCF7 cells; format: toxicity, cell-based; details: HEK293 cells versus MCF7 cells, read-out: Ratio IC50
[30] = Selectivity index, ratio of IC50 for antiproliferative activity against HEK293 cells to IC50 for antiproliferative activity against human HL60 cells; format: toxicity, cell-based; details: HEK293 cells versus HL60 cells, read-out: Ratio IC50
[31] = test system: A549; test: Cell cycle arrest in human A549 cells assessed as accumulation at G0/G1 phase at 135 nM after 20 hrs by propidium iodide staining based flow cytometry (reference value: 66 +/- 1%); format: functional
[32] = Selectivity index, ratio of IC50 for antiproliferative activity against HEK293 cells to IC50 for antiproliferative activity against human HT-29 cells; format: toxicity, cell-based; details: HEK293 cells versus HT-29 cells, read-out: Ratio IC50
[33] = test system: A549; test: Cell cycle arrest in human A549 cells assessed as accumulation at S phase at 135 nM after 20 hrs by propidium iodide staining based flow cytometry (reference value: 16 +/- 1%); format: functional
[34] = Selectivity index, ratio of IC50 for antiproliferative activity against HEK293 cells to IC50 for antiproliferative activity against human HeLa cells; format: toxicity, cell-based; details: HEK293 cells versus HeLa cells, read-out: Ratio IC50
[35] = test system: A549; test: Cell cycle arrest in human A549 cells assessed as accumulation at S phase at 275 nM after 20 hrs by propidium iodide staining based flow cytometry (reference value: 16 +/- 1%); format: functional
[36] = test system: A549; test: Cell cycle arrest in human A549 cells assessed as accumulation at sub-G0 phase at 275 nM after 20 hrs by propidium iodide staining based flow cytometry (reference value: 6.6 +/- 0.1%); format: functional
[37] = test system: A549; test: Cell cycle arrest in human A549 cells assessed as accumulation at G2/M phase at 275 nM after 20 hrs by propidium iodide staining based flow cytometry (reference value: 11 +/- 1%); format: functional
[38] = test system: MDA-MB-231; test: Inhibition of EBI binding to beta-tubulin colchicine binding site in human MDA-MB-231 cells at 10 uM preincubated for 16 hrs followed by EBI addition and measured after 1.5 hrs by Western blot analysis; format: cell-based
[39] = test system: A549; test: Cell cycle arrest in human A549 cells assessed as accumulation at G0/G1 phase at 275 nM after 20 hrs by propidium iodide staining based flow cytometry (reference value: 66 +/- 1%); format: functional
[40] = test system: A549; test: Disruption of microtubule network in human A549 cells assessed as appearance of tubulin aggregates at 220 nM after 16 hrs by Hoechst staining based immunofluorescence assay; format: cell-based
[41] = test system: A549; test: Disruption of microtubule network in human A549 cells assessed as appearance of compressed and fragmented nuclei at 220 nM after 16 hrs by Hoechst staining based immunofluorescence assay; format: cell-based
[42] = test system: A549; test: Cell cycle arrest in human A549 cells assessed as accumulation at S phase at 55 nM after 20 hrs by propidium iodide staining based flow cytometry (reference value: 16 +/- 1%); format: functional
[43] = test system: A549; test: Cell cycle arrest in human A549 cells assessed as accumulation at sub-G0 phase at 55 nM after 20 hrs by propidium iodide staining based flow cytometry (reference value: 6.6 +/- 0.1%); format: functional
[44] = test system: A549; test: Cell cycle arrest in human A549 cells assessed as accumulation at G2/M phase at 55 nM after 20 hrs by propidium iodide staining based flow cytometry (reference value: 11 +/- 1%); format: functional
[45] = test system: A549; test: Cell cycle arrest in human A549 cells assessed as accumulation at G0/G1 phase at 55 nM after 20 hrs by propidium iodide staining based flow cytometry (reference value: 66 +/- 1%); format: functional
[46] = test system: A549; test: Cell cycle arrest in human A549 cells assessed as accumulation at G0/G1 phase at 2000 nM after 20 hrs by propidium iodide staining based flow cytometry (reference value: 66 +/- 1%); format: functional
[47] = test system: A549; test: Cell cycle arrest in human A549 cells assessed as accumulation at sub-G0 phase at 2000 nM after 20 hrs by propidium iodide staining based flow cytometry (reference value: 6.6 +/- 0.1%); format: functional
[48] = test system: A549; test: Cell cycle arrest in human A549 cells assessed as accumulation at G2/M phase at 2000 nM after 20 hrs by propidium iodide staining based flow cytometry (reference value: 11 +/- 1%); format: functional

Structure (SMILES)	IC50 [1] [nM]	IC50 [6] [nM]	IC50 [8] [nM]	IC50 [9] [nM]	IC50 [13] [nM]	IC50 [14] [nM]	IC50 [5] [nM]	IC50 [12] [nM]	further results
COc1ccc(/C=C\c2cc(OC)c(OC)c(OC)c2)cc1NC(=O)Oc1ccccc1OC	290	350	230	3000	348	> 100	160	400	inhibition [2]: Active; Activity [3]: 43%; Activity [4]: 17%; Activity [7]: 29%; Activity [10]: 12%; Activity [11]: Dose-dependent effect
COc1ccc(/C=C\c2cc(OC)c(OC)c(OC)c2)cc1NC(=O)Oc1ccc(C)cc1	270	52	200	1500	370	14	144	160	Activity [15]: 16%; Activity [16]: 32%; Activity [17]: 27%; Activity [18]: 24%
COc1ccc(OC(=O)Nc2cc(/C=C\c3cc(OC)c(OC)c(OC)c3)ccc2OC)cc1	350	50	230	550	200	69	130	120	Activity [35]: 14%; Activity [36]: 14%; Activity [37]: 46%; inhibition [38]: Active; Activity [11]: Dose-dependent effect; Activity [39]: 25%
COc1ccc(/C=C\c2cc(OC)c(OC)c(OC)c2)cc1NC(=O)Oc1ccccc1C(F)(F)F	16	6.7	44	110	15	13.7	4.1	19	Activity [40]: Active; Activity [41]: Active; Activity [42]: 15%; Activity [43]: 20%; Activity [44]: 44%; Activity [45]: 21%
COc1ccc(/C=C\c2cc(OC)c(OC)c(OC)c2)cc1NC(=O)Oc1c(C)cccc1C	600	470	440	3900	320	76	490	380	Activity [46]: 25%; Activity [47]: 23%; Activity [48]: 35%

Continued by falling IC50 [1], values first:

IC50 [1] [nM]	IC50 [6] [nM]	IC50 [8] [nM]	IC50 [9] [nM]	IC50 [13] [nM]	IC50 [14] [nM]	Structure (SMILES)	IC50 [5] [nM]	IC50 [12] [nM]	further results
175	59	16	900	40	66	COc1ccc(/C=C\c2cc(OC)c(OC)c(OC)c2)cc1NC(=O)Oc1cccc(C)c1C	80	140	Activity [23]: 22%; Activity [24]: 24%; Activity [25]: 12%; Activity [26]: 42%
160	222	380	460	50	21	COc1ccc(/C=C\c2cc(OC)c(OC)c(OC)c2)cc1NC(=O)Oc1ccccc1C	60	55	Activity [19]: 16%; Activity [20]: 31%; Activity [21]: 13%; Activity [22]: 40%
27.6	40	9.2	270	21	21.5	COc1ccc(/C=C\c2cc(OC)c(OC)c(OC)c2)cc1NC(=O)Oc1ccc(C(F)(F)F)cc1	57	30	Activity [27]: 39%; Activity [28]: 26%; selectivity ratio [29]: 2 to 11; selectivity ratio [30]: 2 to 11; Activity [31]: 22%; selectivity ratio [32]: 2 to 11; Activity [33]: 14%; selectivity ratio [34]: 2 to 11
